Measurements published in US8829007B2 (priority 2009, dated 2014).
Like-named read-outs stand apart in the source and are kept apart here.

Legend:
[1] = test system: influenza A virus (A/PR/8/34); experiment: microbe, parasite or virus in culture; assay type: cell-based
[2] = test system: A/PR/8/34 influenza virus; experiment: microbe, parasite or virus in culture; assay type: cell-based
[3] = mean all, MDCK cells infected with A/PR/8/34, cell protection (CPE), read-out: IC50
[4] = mean all, bDNA viral RNA in MDCK cells infected with A/PR/8/34, read-out: EC50
[5] = Influenza A virus, PR/8, MDCK, MDCK cells infected with A/PR/8/34, survival of infected cells, class symbols, read-out: IC50 (mean all)
[6] = Influenza A virus, PR/8, MDCK, MDCK cells infected with A/PR/8/34, replication of influenza virus (viral RNA, bDNA), class symbols, read-out: EC50 (mean all)
[7] = Influenza A virus, PR/8, MDCK, MDCK cells infected with A/PR/8/34, cell protection (CPE), read-out: IC50 (mean all)
[8] = Influenza A virus, PR/8, MDCK, MDCK cells infected with A/PR/8/34, bDNA viral RNA, read-out: EC50 (mean all)
[9] = Influenza A virus, PR/8, MDCK, mean all, A/PR/8/34 infected MDCK cells, CPE assay, read-out: IC50
[10] = Influenza A virus, PR/8, MDCK, mean all, A/PR/8/34 influenza virus in MDCK cells, bDNA assay, read-out: EC50
[11] = Influenza A virus, PR/8, MDCK, read-out: IC50 (mean all)
[12] = Influenza A virus, PR/8, MDCK, read-out: EC50 (mean all)
[13] = Influenza A virus, PR/8, MDCK, mean all, survival of A/PR/8/34 infected MDCK cells (CPE assay), read-out: IC50
[14] = Influenza A virus, PR/8, mean all, replication of A/PR/8/34 influenza virus (bDNA assay), read-out: EC50

COP(=O)(CN1CCC[C@H](Nc2nc(-c3c[nH]c4ncc(Cl)cc34)ncc2F)C1)OC [Compound 690]
IC50 ([1]; Influenza A virus, PR/8, MDCK, read-out: IC50): < 5 µM | EC50 ([2]; Influenza A virus, PR/8, MDCK): < 5 µM

CC1(C(=O)NC2CCCC(Nc3nc(-c4c[nH]c5ncc(Cl)cc45)ncc3F)C2)CCCO1 (stereo not drawn) [Compound 682]
IC50 [1, 3]: < 5 µM | EC50 [2, 4]: < 5 µM

NC(=O)CN1CCC[C@H](Nc2nc(-c3c[nH]c4ncc(Cl)cc34)ncc2F)C1 [Compound 567]
IC50 [1, 5]: < 5 µM | EC50 [2, 6]: < 5 µM

O=S(=O)(/C=C/c1ccccc1)N1CCC[C@H](CNc2nc(-c3c[nH]c4ncc(Cl)cc34)ncc2F)C1 [Compound 60, (R,E)-2-(5-chloro-1H-pyrrolo[2,3-b]pyridin-3-yl)-5-fluoro-N-((1-(styrylsulfonyl)piperidin-3-yl)methyl)pyrimidin-4-amine]
IC50 [1, 7]: < 5 µM | EC50 [2, 8]: < 5 µM

CC(C)S(=O)(=O)N1CCC[C@@H](Nc2nc(-c3c[nH]c4ncc(Cl)cc34)ncc2F)C1 [Compound 322, (R)-2-(5-chloro-1H-pyrrolo[2,3-b]pyridin-3-yl)-5-fluoro-N-(1-(isopropylsulfonyl)-piperidin-3-yl)pyrimidin-4-amine]
IC50 [1, 9]: > 20 µM | EC50 [2, 10]: < 5 µM

C=C(C)OC(=O)N1CCC[C@H](CNc2nc(-c3c[nH]c4ncc(Cl)cc34)ncc2F)C1 [Compound 74, (R)-prop-1-en-2-yl 3-((2-(5-chloro-1H-pyrrolo[2,3-b]pyridin-3-yl)-5-fluoropyrimidin-4-ylamino)methyl)piperidine-1-carboxylate]
IC50 [1, 11]: < 5 µM | EC50 [2, 12]: < 5 µM

CC1(O)CCC[C@H](Nc2nc(-c3c[nH]c4ncc(Cl)cc34)ncc2F)C1 (stereo partly drawn) [Compound 572]
IC50 ([1]; MDCK cells infected with A/PR/8/34, survival of infected cells, class symbols, read-out: IC50 (mean all)): < 5 µM | EC50 ([2]; MDCK cells infected with A/PR/8/34, replication of influenza virus (viral RNA, bDNA), class symbols, read-out: EC50 (mean all)): < 5 µM

CCNC(=O)OC1CCCC(Nc2nc(-c3c[nH]c4ncc(Cl)cc34)ncc2F)C1 (stereo not drawn) [Compound 608, 3-((2-(5-chloro-1H-pyrrolo[2,3-b]pyridin-3-yl)-5-fluoropyrimidin-4-ylamino)cyclohexyl ethylcarbamate]
IC50 [1, 11]: < 5 µM | EC50 [2, 12]: < 5 µM

O=C(CCl)N1CCC[C@H](CNc2nc(-c3c[nH]c4ncc(Cl)cc34)ncc2F)C1 [Compound 92, (R)-2-chloro-1-(3-((2-(5-chloro-1H-pyrrolo[2,3-b]pyridin-3-yl)-5-fluoropyrimidin-4-ylamino)methyl)piperidin-1-yl)ethanone]
IC50 [1, 7]: < 5 µM | EC50 [2, 8]: < 5 µM

CC(=O)OCC(=O)N1CCC[C@H](CNc2nc(-c3c[nH]c4ncc(Cl)cc34)ncc2F)C1 [Compound 110, (R)-2-(3-((2-(5-chloro-1H-pyrrolo[2,3-b]pyridin-3-yl)-5-fluoropyrimidin-4-ylamino)methyl)piperidin-1-yl)-2-oxoethyl ethanoate]
IC50 [1, 7]: < 5 µM | EC50 [2, 8]: < 5 µM

(R)—N-((1-(3-bromophenylsulfonyl)piperidin-3-yl)methyl)-2-(5-chloro-1H-pyrrolo[2,3-b]pyridin-3-yl)-5-fluoropyrimidin-4-amine [Compound 88]
IC50 ([1]; read-out: IC50 (mean all)): < 5 µM | EC50 ([2]; read-out: EC50 (mean all)): < 5 µM

CN1CCC[C@H](Nc2nc(-c3c[nH]c4ncc(Cl)cc34)ncc2F)C1=O [Compound 397]
IC50 [1, 9]: < 5 µM | EC50 [2, 10]: < 5 µM

CC(C)(C)c1nc(-c2c[nH]c3ncc(Cl)cc23)nc(N[C@H]2CCCC[C@@H]2C(=O)O)c1F [Compound 629, (1S,2S)-2-(6-tert-butyl-2-(5-chloro-1H-pyrrolo[2,3-b]pyridin-3-yl)-5-fluoropyrimidin-4-ylamino)cyclohexanecarboxylic acid]
IC50 ([1]; Influenza A virus, PR/8, MDCK, CPE assay, A/PR/8/34 infected MDCK cells, class symbols, read-out: IC50 (mean all)): < 5 µM | EC50 ([2]; Influenza A virus, PR/8, MDCK, bDNA assay, A/PR/8/34 influenza virus replication in MDCK cells, class symbols, read-out: EC50 (mean all)): < 5 µM

CS(=O)(=O)N1CCOCC1CNc1nc(-c2c[nH]c3ncc(Cl)cc23)ncc1F (stereo not drawn) [Compound 532, 2-(5-chloro-1H-pyrrolo[2,3-b]pyridin-3-yl)-5-fluoro-N-((4-(methylsulfonyl)morpholin-3-yl)methyl)pyrimidin-4-amine]
IC50 [1, 5]: 5 to 20 µM | EC50 [2, 6]: < 5 µM

NC(=O)[C@@H]1CCCC[C@@H]1Nc1nc(-c2c[nH]c3ncc(Cl)cc23)ncc1F (relative stereo) [Compound 544, cis-2-(2-(5-chloro-1H-pyrrolo[2,3-b]pyridin-3-yl)-5-fluoropyrimidin-4-ylamino)cyclohexanecarboxamide]
IC50 [1, 5]: > 20 µM | EC50 [2, 6]: < 5 µM

CC(C)(C)NC(=O)N1CCC[C@H](CNc2nc(-c3c[nH]c4ncc(Cl)cc34)ncc2F)C1 [Compound 128, (R)—N-tert-butyl-3-((2-(5-chloro-1H-pyrrolo[2,3-b]pyridin-3-yl)-5-fluoropyrimidin-4-ylamino)methyl)piperidine-1-carboxamide]
IC50 [1, 7]: < 5 µM | EC50 [2, 8]: < 5 µM

O=C(O)[C@H]1C(Nc2nc(-c3c[nH]c4ncc(Cl)cc34)ncc2F)[C@H]2CC[C@@H]1C2 (mixture of isomers) [Compound 947]
IC50 [1, 13]: < 5 µM | EC50 [2, 14]: < 5 µM

COc1cccc(S(=O)(=O)N2CCC[C@H](CNc3nc(-c4c[nH]c5ncc(Cl)cc45)ncc3F)C2)c1 [Compound 62, (R)-2-(5-chloro-1H-pyrrolo[2,3-b]pyridin-3-yl)-5-fluoro-N-((1-(3-methoxyphenylsulfonyl)piperidin-3-yl)methyl)pyrimidin-4-amine]
IC50 [1, 7]: < 5 µM | EC50 [2, 8]: < 5 µM

CCCNC(=O)N1CCCC[C@@H]1CNc1nc(-c2c[nH]c3ncccc23)ncc1F [Compound 375, (R)-2-((5-fluoro-2-(1H-pyrrolo[2,3-b]pyridin-3-yl)pyrimidin-4-ylamino)methyl)-N-propylpiperidine-1-carboxamide]
IC50 [1, 9]: 5 to 20 µM | EC50 [2, 10]: 5 to 10 µM

O=S(=O)(C1CC1)N1CCOCC1CNc1nc(-c2c[nH]c3ncc(Cl)cc23)ncc1F (stereo not drawn) [Compound 533, 2-(5-chloro-1H-pyrrolo[2,3-b]pyridin-3-yl)-N-((4-(cyclopropylsulfonyl)morpholin-3-yl)methyl)-5-fluoropyrimidin-4-amine]
IC50 [1, 5]: 5 to 20 µM | EC50 [2, 6]: < 5 µM

CN1C[C@@]2(CCC[C@H](Nc3nc(-c4c[nH]c5ncc(Cl)cc45)ncc3F)C2)OC1=O [Compound 971, (5S,7S)-7-(2-(5-chloro-1H-pyrrolo[2,3-b]pyridin-3-yl)-5-fluoropyrimidin-4-ylamino)-3-methyl-1-oxa-3-azaspiro[4.5]decan-2-one]
IC50 [1, 13]: < 5 µM | EC50 [2, 14]: < 5 µM

CCC(=O)N1CCC[C@@H](CNc2nc(-c3c[nH]c4ncc(Cl)cc34)ncc2F)C1 [Compound 32, (S)-1-(3-((2-(5-chloro-1H-pyrrolo[2,3-b]pyridin-3-yl)-5-fluoropyrimidin-4-ylamino)methyl)piperidin-1-yl)propan-1-one]
IC50 [1, 7]: < 5 µM | EC50 [2, 8]: < 5 µM

O=C(C1CCCC1)N1CCC[C@H](CNc2nc(-c3c[nH]c4ncc(Cl)cc34)ncc2F)C1 [Compound 99, (R)-(3-((2-(5-chloro-1H-pyrrolo[2,3-b]pyridin-3-yl)-5-fluoropyrimidin-4-ylamino)methyl)piperidin-1-yl)(cyclopentyl)methanone]
IC50 [1, 7]: < 5 µM | EC50 [2, 8]: < 5 µM

Fc1cnc(-c2c[nH]c3ncc(Cl)cc23)nc1NC[C@H]1CCCN(c2ncccn2)C1 [Compound 124, (R)-2-(5-chloro-1H-pyrrolo[2,3-b]pyridin-3-yl)-5-fluoro-N-((1-(pyrimidin-2-yl)piperidin-3-yl)methyl)pyrimidin-4-amine]
IC50 [1, 7]: < 5 µM | EC50 [2, 8]: < 5 µM

O=C(NC1CCCC(Nc2nc(-c3c[nH]c4ncc(Cl)cc34)ncc2F)C1)C1CCC1 (stereo not drawn) [Compound 726]
IC50 [1, 3]: < 5 µM | EC50 [2, 4]: < 5 µM

COC1CN(C(=O)C2CCCC(Nc3nc(-c4c[nH]c5ncc(Cl)cc45)ncc3F)C2)C1 (stereo not drawn) [Compound 720]
IC50 [1, 3]: < 5 µM | EC50 [2, 4]: < 5 µM

O=C(O)[C@@H]1CCC[C@@H]1Nc1nc(-c2c[nH]c3ncc(Cl)cc23)ncc1F (relative stereo) [Compound 558, Cis-2-(2-(5-chloro-1H-pyrrolo[2,3-b]pyridin-3-yl)-5-fluoropyrimidin-4-ylamino)cyclopentanecarboxylic acid]
IC50 [1, 5]: < 5 µM | EC50 [2, 6]: < 5 µM

Cn1cnc(S(=O)(=O)N2CCC[C@H](CNc3nc(-c4c[nH]c5ncc(Cl)cc45)ncc3F)C2)c1 [Compound 91, (R)-2-(5-chloro-1H-pyrrolo[2,3-b]pyridin-3-yl)-5-fluoro-N-((1-(1-methyl-1H-imidazol-4-ylsulfonyl)piperidin-3-yl)methyl)pyrimidin-4-amine]
IC50 [1, 7]: < 5 µM | EC50 [2, 8]: < 5 µM

COCC(=O)NC1CCCC(Nc2nc(-c3c[nH]c4ncc(F)cc34)ncc2F)C1 (stereo not drawn) [Compound 703]
IC50 [1, 3]: < 5 µM | EC50 [2, 4]: < 5 µM

Cc1cccc(C(=O)N2CCC[C@H](CNc3nc(-c4c[nH]c5ncc(Cl)cc45)ncc3F)C2)c1C [Compound 157, (R)-(3-((2-(5-chloro-1H-pyrrolo[2,3-b]pyridin-3-yl)-5-fluoropyrimidin-4-ylamino)methyl)piperidin-1-yl)(2,3-dimethylphenyl)methanone]
IC50 [1, 7]: < 5 µM | EC50 [2, 8]: < 5 µM
